Test results: ChEMBL document CHEMBL3045059, “Efficacy of ketoenols on insecticide resistant field populations of two-spotted spider mite Tetranychus urticae and sweet potato whitefly Bemisia tabaci from Greece” (2012)
In brackets after ≈: the same amount, converted by molar mass.

Key:
Type in all cases: functional
Bemisia tabaci [1] = experiment: Acaricidal activity against second-instar nymph stage of Bemisia tabaci (sweet potato whitefly) field population GR157 in cotton leaves assessed as mortality incubated for 5 secs measured after 10 to 12 days
Bemisia tabaci [2] = experiment: Resistance ratio, ratio of alpha-cypermethrin LC50 to compound LC50 for second-instar nymph stage of Bemisia tabaci (sweet potato whitefly) greenhouse population GR165
Bemisia tabaci [3] = experiment: Acaricidal activity against second-instar nymph stage of Bemisia tabaci (sweet potato whitefly) greenhouse population GR191 in cotton leaves assessed as mortality incubated for 5 secs measured after 10 to 12 days
Bemisia tabaci [4] = experiment: Resistance ratio, ratio of imidacloprid LC50 to compound LC50 for second-instar nymph stage of Bemisia tabaci (sweet potato whitefly) greenhouse population GR188
Bemisia tabaci [5] = experiment: Resistance ratio, ratio of imidacloprid LC50 to compound LC50 for second-instar nymph stage of Bemisia tabaci (sweet potato whitefly) greenhouse population GR164
Bemisia tabaci [6] = experiment: Acaricidal activity against second-instar nymph stage of Bemisia tabaci (sweet potato whitefly) laboratory strain GRMAL-RP in cotton leaves assessed as mortality incubated for 5 secs measured after 10 to 12 days
Bemisia tabaci [7] = experiment: Resistance ratio, ratio of alpha-cypermethrin LC50 to compound LC50 for second-instar nymph stage of Bemisia tabaci (sweet potato whitefly) greenhouse population GR258
Bemisia tabaci [8] = experiment: Resistance ratio, ratio of imidacloprid LC50 to compound LC50 for second-instar nymph stage of Bemisia tabaci (sweet potato whitefly) greenhouse population GR194
Bemisia tabaci [9] = experiment: Resistance ratio, ratio of imidacloprid LC50 to compound LC50 for second-instar nymph stage of Bemisia tabaci (sweet potato whitefly) field population GR259
Bemisia tabaci [10] = experiment: Resistance ratio, ratio of imidacloprid LC50 to compound LC50 for second-instar nymph stage of Bemisia tabaci (sweet potato whitefly) greenhouse population GR187
Bemisia tabaci [11] = experiment: Resistance ratio, ratio of alpha-cypermethrin LC50 to compound LC50 for second-instar nymph stage of Bemisia tabaci (sweet potato whitefly) greenhouse population GR194
Bemisia tabaci [12] = experiment: Acaricidal activity against second-instar nymph stage of Bemisia tabaci (sweet potato whitefly) greenhouse population GR165 in cotton leaves assessed as mortality incubated for 5 secs measured after 10 to 12 days
Bemisia tabaci [13] = experiment: Acaricidal activity against second-instar nymph stage of Bemisia tabaci (sweet potato whitefly) greenhouse population GR194 in cotton leaves assessed as mortality incubated for 5 secs measured after 10 to 12 days
Bemisia tabaci [14] = experiment: Resistance ratio, ratio of imidacloprid LC50 to compound LC50 for second-instar nymph stage of Bemisia tabaci (sweet potato whitefly) laboratory strain GRMAL-RN
Bemisia tabaci [15] = experiment: Resistance ratio, ratio of alpha-cypermethrin LC50 to compound LC50 for second-instar nymph stage of Bemisia tabaci (sweet potato whitefly) greenhouse population GR164
Bemisia tabaci [16] = experiment: Resistance ratio, ratio of alpha-cypermethrin LC50 to compound LC50 for second-instar nymph stage of Bemisia tabaci (sweet potato whitefly) greenhouse population GR187
Bemisia tabaci [17] = experiment: Acaricidal activity against second-instar nymph stage of Bemisia tabaci (sweet potato whitefly) greenhouse population GR187 in cotton leaves assessed as mortality incubated for 5 secs measured after 10 to 12 days
Bemisia tabaci [18] = experiment: Acaricidal activity against second-instar nymph stage of Bemisia tabaci (sweet potato whitefly) field population GR259 in cotton leaves assessed as mortality incubated for 5 secs measured after 10 to 12 days
Bemisia tabaci [19] = experiment: Resistance ratio, ratio of alpha-cypermethrin LC50 to compound LC50 for second-instar nymph stage of Bemisia tabaci (sweet potato whitefly) field population GR157
Bemisia tabaci [20] = experiment: Acaricidal activity against second-instar nymph stage of Bemisia tabaci (sweet potato whitefly) greenhouse population GR188 in cotton leaves assessed as mortality incubated for 5 secs measured after 10 to 12 days
Bemisia tabaci [21] = experiment: Resistance ratio, ratio of alpha-cypermethrin LC50 to compound LC50 for second-instar nymph stage of Bemisia tabaci (sweet potato whitefly) greenhouse population GR191
Bemisia tabaci [22] = experiment: Acaricidal activity against second-instar nymph stage of Bemisia tabaci (sweet potato whitefly) greenhouse population GR258 in cotton leaves assessed as mortality incubated for 5 secs measured after 10 to 12 days
Bemisia tabaci [23] = experiment: (§1) Acaricidal activity against second-instar nymph stage of Bemisia tabaci (sweet potato whitefly) greenhouse population GR164 in cotton leaves assessed as survival at 30 mg/l at the last selection cycle of four generations incubated for 5 secs measured after 10 to 12 days by applying constant selection pressure under laboratory conditions
Bemisia tabaci [24] = experiment: Resistance ratio, ratio of imidacloprid LC50 to compound LC50 for second-instar nymph stage of Bemisia tabaci (sweet potato whitefly) field population GR163
Bemisia tabaci [25] = experiment: Acaricidal activity against second-instar nymph stage of Bemisia tabaci (sweet potato whitefly) greenhouse population GR164 in cotton leaves assessed as mortality incubated for 5 secs measured after 10 to 12 days
Bemisia tabaci [26] = experiment: Resistance ratio, ratio of alpha-cypermethrin LC50 to compound LC50 for second-instar nymph stage of Bemisia tabaci (sweet potato whitefly) greenhouse population GR188
Bemisia tabaci [27] = experiment: Resistance ratio, ratio of alpha-cypermethrin LC50 to compound LC50 for second-instar nymph stage of Bemisia tabaci (sweet potato whitefly) greenhouse population GR192
Bemisia tabaci [28] = experiment: Resistance ratio, ratio of imidacloprid LC50 to compound LC50 for second-instar nymph stage of Bemisia tabaci (sweet potato whitefly) greenhouse population GR191
Bemisia tabaci [29] = experiment: Resistance ratio, ratio of imidacloprid LC50 to compound LC50 for second-instar nymph stage of Bemisia tabaci (sweet potato whitefly) greenhouse population GR192
Bemisia tabaci [30] = experiment: Resistance ratio, ratio of alpha-cypermethrin LC50 to compound LC50 for second-instar nymph stage of Bemisia tabaci (sweet potato whitefly) laboratory strain GRMAL-RP
Bemisia tabaci [31] = experiment: Resistance ratio, ratio of imidacloprid LC50 to compound LC50 for second-instar nymph stage of Bemisia tabaci (sweet potato whitefly) greenhouse population GR165
Bemisia tabaci [32] = experiment: Resistance ratio, ratio of alpha-cypermethrin LC50 to compound LC50 for second-instar nymph stage of Bemisia tabaci (sweet potato whitefly) field population GR163
Bemisia tabaci [33] = experiment: Resistance ratio, ratio of imidacloprid LC50 to compound LC50 for second-instar nymph stage of Bemisia tabaci (sweet potato whitefly) greenhouse population GR258
Bemisia tabaci [34] = experiment: as §1, with “survival of the parent population” for “survival”, “mg/l” for “mg/l at the last selection cycle of four generations”
Bemisia tabaci [35] = experiment: Acaricidal activity against second-instar nymph stage of Bemisia tabaci (sweet potato whitefly) laboratory strain GRMAL-RN in cotton leaves assessed as mortality incubated for 5 secs measured after 10 to 12 days
Bemisia tabaci [36] = experiment: Acaricidal activity against second-instar nymph stage of Bemisia tabaci (sweet potato whitefly) field population GR163 in cotton leaves assessed as mortality incubated for 5 secs measured after 10 to 12 days
Bemisia tabaci [37] = experiment: Resistance ratio, ratio of imidacloprid LC50 to compound LC50 for second-instar nymph stage of Bemisia tabaci (sweet potato whitefly) field population GR157
Bemisia tabaci [38] = experiment: Resistance ratio, ratio of alpha-cypermethrin LC50 to compound LC50 for second-instar nymph stage of Bemisia tabaci (sweet potato whitefly) field population GR259
Bemisia tabaci [39] = experiment: Acaricidal activity against second-instar nymph stage of Bemisia tabaci (sweet potato whitefly) greenhouse population GR192 in cotton leaves assessed as mortality incubated for 5 secs measured after 10 to 12 days

Cc1cc(C)c(C2=C(OC(=O)CC(C)(C)C)C3(CCCC3)OC2=O)c(C)c1 [SPIROMESIFEN]
LC95 (Bemisia tabaci [1]): 139.9 µg/mL (≈ 378 µM) | LC50 (Bemisia tabaci [1]; Bemisia tabaci, GR157, Nymph stage): 5.4 µg/mL (≈ 14.6 µM) | RatioLC50 (Bemisia tabaci [2]): 256 | LC95 (Bemisia tabaci [3]): 18.62 µg/mL (≈ 50.3 µM) | LC50 (Bemisia tabaci [3]; Bemisia tabaci, GR191, Nymph stage): 5.1 µg/mL (≈ 13.8 µM) | RatioLC50 (Bemisia tabaci [4]): 353 | RatioLC50 (Bemisia tabaci [5]): 7 | LC95 (Bemisia tabaci [6]): 50.31 µg/mL (≈ 136 µM) | LC50 (Bemisia tabaci [6]; Bemisia tabaci, GRMAL-RP, Nymph stage): 1.1 µg/mL (≈ 2.97 µM) | RatioLC50 (Bemisia tabaci [7]): 1190 | RatioLC50 (Bemisia tabaci [8]): 247 | RatioLC50 (Bemisia tabaci [9]): 323 | RatioLC50 (Bemisia tabaci [10]): 94 | RatioLC50 (Bemisia tabaci [11]): 142 | LC95 (Bemisia tabaci [12]): 37.16 µg/mL (≈ 100 µM) | LC50 (Bemisia tabaci [12]; Bemisia tabaci, GR165, Nymph stage): 4.5 µg/mL (≈ 12.1 µM) | LC95 (Bemisia tabaci [13]): 49.23 µg/mL (≈ 133 µM) | LC50 (Bemisia tabaci [13]; Bemisia tabaci, GR194, Nymph stage): 6.4 µg/mL (≈ 17.3 µM) | RatioLC50 (Bemisia tabaci [14]): 958 | RatioLC50 (Bemisia tabaci [15]): 42 | RatioLC50 (Bemisia tabaci [16]): 101 | LC95 (Bemisia tabaci [17]): 24.95 µg/mL (≈ 67.3 µM) | LC50 (Bemisia tabaci [17]; Bemisia tabaci, GR187, Nymph stage): 4.6 µg/mL (≈ 12.4 µM) | LC95 (Bemisia tabaci [18]): 30.74 µg/mL (≈ 83 µM) | LC50 (Bemisia tabaci [18]; Bemisia tabaci, GR259, Nymph stage): 7.9 µg/mL (≈ 21.3 µM) | RatioLC50 (Bemisia tabaci [19]): 426 | LC95 (Bemisia tabaci [20]): 21.41 µg/mL (≈ 57.8 µM) | LC50 (Bemisia tabaci [20]; Bemisia tabaci, GR188, Nymph stage): 6.1 µg/mL (≈ 16.5 µM) | RatioLC50 (Bemisia tabaci [21]): 179 | LC95 (Bemisia tabaci [22]): 49.19 µg/mL (≈ 133 µM) | LC50 (Bemisia tabaci [22]; Bemisia tabaci, GR258, Nymph stage): 12 µg/mL (≈ 32.4 µM) | survival at 30 µg/mL (Bemisia tabaci [23]): 13% | RatioLC50 (Bemisia tabaci [24]): 46 | LC95 (Bemisia tabaci [25]): 69.44 µg/mL (≈ 187 µM) | LC50 (Bemisia tabaci [25]; Bemisia tabaci, GR164, Nymph stage): 12 µg/mL (≈ 32.4 µM) | RatioLC50 (Bemisia tabaci [26]): 105 | RatioLC50 (Bemisia tabaci [27]): 179 | RatioLC50 (Bemisia tabaci [28]): 120 | RatioLC50 (Bemisia tabaci [29]): 323 | RatioLC50 (Bemisia tabaci [30]): >621 | RatioLC50 (Bemisia tabaci [31]): 73 | RatioLC50 (Bemisia tabaci [32]): 478 | RatioLC50 (Bemisia tabaci [33]): 369 | survival at 30 µg/mL (Bemisia tabaci [34]): 27% | LC95 (Bemisia tabaci [35]): 47.61 µg/mL (≈ 129 µM) | LC50 (Bemisia tabaci [35]; Bemisia tabaci, GRMAL-RN, Nymph stage): 6.7 µg/mL (≈ 18.1 µM) | LC95 (Bemisia tabaci [36]): 85.08 µg/mL (≈ 230 µM) | LC50 (Bemisia tabaci [36]; Bemisia tabaci, GR163, Nymph stage): 11.6 µg/mL (≈ 31.3 µM) | RatioLC50 (Bemisia tabaci [37]): 88 | RatioLC50 (Bemisia tabaci [38]): 741 | LC95 (Bemisia tabaci [39]): 44.79 µg/mL (≈ 121 µM) | LC50 (Bemisia tabaci [39]; Bemisia tabaci, GR192, Nymph stage): 14 µg/mL (≈ 37.8 µM)
